Reference: patent US9957214B2, “Multifunctional radical quenchers” (ARIZONA BOARD OF REGENTS ON BEHALF OF ARIZONA STATE …, priority 2012, dated 2018)

Columns and labels:
[1] = test system: Friedreich's ataxia lymphoblast cell line GM15850; test: Cytoprotection (trypan blue exclusion assay) of DEM-treated FRDA lymphocytes; assay type: cell-based; details: for viability at 0.1 µM / viability at 0.5 µM / viability at 2.5 µM / viability at 5 µM / viability at 1 µM: Homo sapiens, GM15850, DEM alone 18 ± 10% viability, read-out: Cytoprotection (cell viability, % of untreated control)
Procedure: Cell viability was determined by trypan blue exclusion assay in Friedreich's ataxia lymphoblast cell line GM15850 (Coriell Institute, New Jersey). This technique was used to assess the cytoprotective effects of the tested compounds in cultured cells treated with DEM to induce cell death by GSH depletion. The viability of DEM-treated FRDA cells was determined by their ability to exclude the dye trypan blue. Viable cells exclude trypan blue, whereas non-viable cells take up the dye and stain blue. Briefly, FRDA lymphocytes were grown in RPMI 1640 medium (Gibco) supplemented with 15% fetal calf serum, 2 mM glutamine (HyClone) and 1% penicillin-streptomycin mix (Cellgro). Cells were seeded at a density of 5×10^5 cells/mL and treated with different concentrations of the indicated compounds. Cells were incubated at 37° C. in a humidified atmosphere of 5% CO2 in air for 17 h. After pre-incubation, the cells were treated with 5 mM DEM. Cell viability was determined by staining cells with 0.4% trypan blue using a hemacytometer. At least 500 cells were counted in each experimental group. At the time of assay, <20% of DEM treated cells were viable (trypan blue negative), whereas in non DEM-treated control, >90% cells were viable. Cell viability was expressed as the percentage of control. Data are expressed as means±S.E.M. (n=3).
Cell viability was determined by trypan blue exclusion assay in Friedreich's ataxia lymphoblast cell line GM15850 (Coriell Institute). This technique was used to assess the cytoprotective effects of the compounds in cultured cells treated with diethyl maleate (DEM) to induce cell death by glutathione (GSH) depletion. The viability of DEM-treated FRDA cells was determined by their ability to exclude the dye trypan blue. Viable cells exclude trypan blue, whereas non-viable cells take up the dye and stain blue. […] Benzoquinone analogue 9 afforded greater cyoprotection to FRDA lymphocytes at 5 μM concentration than did the tert-butyl ester 6 (74 vs 50%).

[2] = target: bovine heart mitochondrial complex I (Bos taurus, UniProt P03887+P17694+P42026); test: Complex I (NADH-Q1 oxidoreductase) inhibition in submitochondrial particles; assay type: biochemical; details: submitochondrial particles, 30° C.; for IC50: read-out: Complex I inhibition IC50; for Emax: read-out: Complex I inhibition Imax
[3] = test system: NADH oxidase (complexes I, III and IV); test: NADH oxidase activity (complexes I, III and IV) in submitochondrial particles; assay type: biochemical, bovine
FRDA lymphocytes = test: Suppression of lipid peroxidation (C11-BODIPY581/591, FACS) in FRDA lymphocytes treated with diethyl maleate; assay type: cell-based; details: Lymphocyte, DEM, read-out: Scavenging activity (%), suppression of lipid peroxidation
Source text: Several methods for assaying lipid peroxidation in vitro have been developed (Kuypers et al. (1987) Biochim Biophys Acta. 25, 266-274; Pap et al. (1999) FEBS Lett. 453, 278-282; Drummen et al. (2002) Free RadicBiol Med. 33, 473-490). Almost all of these methods are based on inhibition of free radical-induced oxidation reactions. A widely used fluorescence assay for lipid peroxidation uses lipid soluble cis-parinaric acid as a probe. cis-parinaric acid loses its fluorescence (λexc/em: 320/432 nm) upon interaction with peroxyl radicals and retains its fluorescence in the presence of radical quenchers. cis-parinaric acid is, however, air sensitive, photolabile and absorbs light in the UV region of the spectrum (at ˜320 nm). […] In practical terms, the results obtained using cis-parinaric as a probe for lipid peroxidation are confounded due to the overlapping of the compounds emission spectra with the cis-parinaric emission spectrum. C11-BODIPY^581/591 Oxidation to Measure Lipid Peroxidation To overcome the problem of spectral overlap using cis-parinaric acid, a fluorescence assay for lipid peroxidation using a lipophilic probe belonging to the BODIPY class of fluorescent dyes was used C11-BODIPY^581/591 (4,4-difluoro-5(4-phenyl-1,3-butadienyl)-4-bora-3a, 4a-diaza-s-indacene-3-propionic acid) fluorescent shifts from red to green upon oxidation. C11-BODIPY^581/591 (Molecular Probes, Eugene, Oreg., USA) stock solution concentrations were determined by measuring the absorption of C11-BODIPY^581/591 at 582 nm using a molar extinction coefficient of 140,000 mol^−1 cm^−1 (R. P. Haugland, (1999) Handbook of Fluorescent Probes and Research Chemicals, Molecular Probes, Inc., Eugene, Oreg.). The lipid peroxidation inducer 2,2′-Azobis (2-amidino-propane dihydrochloride) (AAPH) and the antioxidant compound α-tocopherol (α-TOH) were obtained from Sigma (St. Louis, Mo., USA). Phospholipid bilayers were prepared from 1-stearoyl-2-oleoyl-phosphatidylcholine (SOPC) and 1,2-dilinoleoyl-phosphatidylcholine (DLPC) and were purchased from Avanti® polar lipids, Inc., (Alabaster, Ala., USA). Preparation of Liposomes Phosphotidylcholine (PC) liposomes were prepared as described before (Guey-Shuang et al. (1982) Lipids. 17, 403-413). Briefly, DLPC (25 mg) were dissolved in chloroform and the solvent was removed by nitrogen evaporation (˜2 hours) to give a thin film of PC in a round bottom flask. The lipid film was hydrated with 50 mL of 10 mM Tris-HCl (pH 7.4), 100 mM KCl, shaken and sonicated for 15 seconds. The liposomes obtained were filtered several times through […] membrane filter. Measurement of C11-BODIPY^581/591 Oxidation C11-BODIPY^581/591 was incorporated into liposomes and oxidized by peroxyl radicals derived from the decomposition of AAPH in the presence and absence of compounds. Liposomes (1 mg/mL), suspended in 10 mM Tris-HCl (pH 7.4), 100 mM KCl, were transferred to a quartz 1 mL cuvette and placed in a Varian Cary Eclipse fluorometer (Varian, Cary, N.C.) equipped with a thermostatted cuvette holder at 40° C. Liposomes were pre-incubated for 10 min with 200 nM C11-BODIPY^581/591 to allow their incorporation into the lipid phase of the liposomes. After the addition of AAPH (10 mM) the decay of the red fluorescence was followed at λ exc=570 nm, λ em=600 nm. Relative fluorescence units were normalized to 100% intensity. Results obtained were verified by repeating experiments N=3 independent experiments. Measurement of C11-BODIPY^581/591 Oxidation in Cell Culture A quantitative FACS analysis of lipid peroxidation of FRDA lymphocytes, which had been treated with diethyl maleate following incubation in the presence and absence of the test compounds, was measured as described (Khdour et al. (2011) Pharmaceut. Res. 28, 2896-2909). Briefly, FRDA lymphocytes (5×10^5 cell/mL) were treated with the test compounds at final concentrations of 5 and 10 μM and incubated at 37° C. for 16 h in a humidified atmosphere containing 5% CO2 in air. […]

Sequence of bovine heart mitochondrial complex I (P25708 21-464): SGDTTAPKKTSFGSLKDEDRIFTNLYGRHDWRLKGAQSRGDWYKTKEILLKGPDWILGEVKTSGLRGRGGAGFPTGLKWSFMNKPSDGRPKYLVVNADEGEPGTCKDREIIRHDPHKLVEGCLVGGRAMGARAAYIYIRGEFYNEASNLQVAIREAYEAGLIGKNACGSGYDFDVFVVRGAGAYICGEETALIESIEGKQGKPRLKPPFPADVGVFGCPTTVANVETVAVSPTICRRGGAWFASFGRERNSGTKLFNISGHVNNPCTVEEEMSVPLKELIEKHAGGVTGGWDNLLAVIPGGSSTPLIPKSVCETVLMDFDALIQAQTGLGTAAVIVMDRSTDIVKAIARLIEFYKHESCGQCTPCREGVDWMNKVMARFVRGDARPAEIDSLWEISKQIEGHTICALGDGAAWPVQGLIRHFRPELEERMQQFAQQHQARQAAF
Sequence of bovine heart mitochondrial complex I (P42026 38-216): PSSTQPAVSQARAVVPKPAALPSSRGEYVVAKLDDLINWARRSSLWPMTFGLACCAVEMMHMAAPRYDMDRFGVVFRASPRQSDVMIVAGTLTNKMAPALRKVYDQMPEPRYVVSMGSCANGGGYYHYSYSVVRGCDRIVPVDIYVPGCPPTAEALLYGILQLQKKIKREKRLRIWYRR
Sequence of bovine heart mitochondrial complex I (P17694 34-463): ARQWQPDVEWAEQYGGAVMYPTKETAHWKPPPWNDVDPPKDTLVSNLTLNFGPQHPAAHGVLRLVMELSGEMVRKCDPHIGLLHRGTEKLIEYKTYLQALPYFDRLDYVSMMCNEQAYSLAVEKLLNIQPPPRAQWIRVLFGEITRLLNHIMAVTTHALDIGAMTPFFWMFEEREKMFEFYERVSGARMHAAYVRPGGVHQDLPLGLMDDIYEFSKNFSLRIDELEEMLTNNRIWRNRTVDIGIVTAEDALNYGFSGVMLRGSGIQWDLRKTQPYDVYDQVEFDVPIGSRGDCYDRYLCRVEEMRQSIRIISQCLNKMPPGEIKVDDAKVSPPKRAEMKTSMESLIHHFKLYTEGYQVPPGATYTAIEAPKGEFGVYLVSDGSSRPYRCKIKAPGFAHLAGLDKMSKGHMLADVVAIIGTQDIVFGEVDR
Sequence of bovine heart mitochondrial complex I (P15690 24-727, further chain): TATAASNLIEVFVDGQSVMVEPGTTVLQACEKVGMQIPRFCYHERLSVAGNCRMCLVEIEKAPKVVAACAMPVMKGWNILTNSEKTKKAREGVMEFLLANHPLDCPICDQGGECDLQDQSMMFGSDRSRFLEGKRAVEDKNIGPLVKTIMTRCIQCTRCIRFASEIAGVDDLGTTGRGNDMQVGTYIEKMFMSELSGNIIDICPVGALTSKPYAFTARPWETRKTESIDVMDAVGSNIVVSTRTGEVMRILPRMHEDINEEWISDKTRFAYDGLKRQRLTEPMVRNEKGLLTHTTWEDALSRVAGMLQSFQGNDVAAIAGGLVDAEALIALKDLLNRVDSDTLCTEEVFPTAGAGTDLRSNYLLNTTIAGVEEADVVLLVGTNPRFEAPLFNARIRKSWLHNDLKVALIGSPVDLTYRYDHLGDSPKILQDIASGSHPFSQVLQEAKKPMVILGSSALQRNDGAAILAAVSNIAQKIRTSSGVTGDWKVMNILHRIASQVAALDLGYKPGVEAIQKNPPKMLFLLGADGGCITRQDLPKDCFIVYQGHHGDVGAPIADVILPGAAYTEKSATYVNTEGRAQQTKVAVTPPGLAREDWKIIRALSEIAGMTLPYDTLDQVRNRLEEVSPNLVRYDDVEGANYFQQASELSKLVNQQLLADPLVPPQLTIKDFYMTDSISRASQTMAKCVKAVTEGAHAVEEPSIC
Sequence of bovine heart mitochondrial complex I (P03887 whole entry): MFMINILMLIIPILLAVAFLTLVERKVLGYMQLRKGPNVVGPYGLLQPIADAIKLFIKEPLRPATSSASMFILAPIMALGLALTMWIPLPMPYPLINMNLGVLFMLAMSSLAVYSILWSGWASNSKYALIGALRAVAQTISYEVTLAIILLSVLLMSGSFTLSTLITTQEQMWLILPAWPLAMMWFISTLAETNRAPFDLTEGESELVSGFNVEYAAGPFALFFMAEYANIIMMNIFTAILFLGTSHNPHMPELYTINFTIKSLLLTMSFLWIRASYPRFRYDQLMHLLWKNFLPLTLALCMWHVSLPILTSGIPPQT
Sequence of bovine heart mitochondrial complex I (P42028 37-212, further chain): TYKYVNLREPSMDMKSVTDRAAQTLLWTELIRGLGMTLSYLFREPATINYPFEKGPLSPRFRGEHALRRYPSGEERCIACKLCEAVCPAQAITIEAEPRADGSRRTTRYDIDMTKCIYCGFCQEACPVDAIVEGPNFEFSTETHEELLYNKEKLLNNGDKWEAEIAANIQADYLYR

For `C=CCCCCCCCCCC1=C(OC)C(=O)C=C(OC)C1=O`, the melting point was 30 to 31 °C.
`CCCCCCCCCCCCCC1=C(OC)C(=O)C=C(N(C)C)C1=O` [Compound 26, 5-(dimethylamino)-2-methoxy-3-tridecylcyclohexa-2,5-diene-1,4-dione] showed a viability at 0.1 µM [1] of 53 ± 9%, a viability at 0.5 µM [1] of 66 ± 3% and a viability at 2.5 µM [1] of 90 ± 3%. For the same molecule, the IC50 [2] was 1.6 ± 0.03 µM, the Emax [2] was 90 ± 1.1% and the “NADH oxidase activity (Complex I, III, IV) %” value ([3]; 1 μM) was 70 ± 2.1%. For the same molecule, the “NADH oxidase activity (Complex I, III, IV) %” value ([3]; 5 μM) was 34 ± 0.6% and the “NADH oxidase activity (Complex I, III, IV) %” value ([3]; 10 μM) was 15 ± 0.4%.
For `CCCCCCCCCCCCCC1=C(O)C(=O)C=C(NCCCC(=O)OCCCCCC)C1=O` [Compound 17, Hexyl 4-(4-hydroxy-3,6-dioxo-5-tridecylcyclohexa-1,4-dienylamino)butanoate], the inhibition at 5 µM (FRDA lymphocytes) was 9 ± 2.5%, the inhibition at 10 µM (FRDA lymphocytes) was 40 ± 9.9% and the viability at 5 µM ([1]; 5 μM) was 49 ± 9.9%. The IC50 [2] was 2 ± 0.4 µM and the Emax [2] was 51 ± 1.4%.
Molecule `CCCCCCCCCCCCCC1=C(O)C(=O)C=C(N(C)CCCC(=O)OC(C)(C)C)C1=O` [Compound 29, tert-butyl 4-((4-hydroxy-3,6-dioxo-5-tridecylcyclohexa-1,4-dienyl)(methyl)amino)-butanoate] has a viability at 1 µM [1] of 21% and a viability at 2.5 µM [1] of 74 ± 4%.
`C=CCCCCCCCCCc1c(OC)c(OC)cc(OC)c1OC` [Compound 34, 1,2,4,5-tetramethoxy-3-(undec-10-enyl)benzene] showed a melting point of 33 to 34 °C.
`CCCCCCCCCCCCCC1=C(OC)C(=O)C=C(NCCCC(=O)O)C1=O` [Compound 9, 4-(4-methoxy-3,6-dioxo-5-tridecylcyclohexa-1,4-dienylamino)butanoic Acid] showed an inhibition at 5 µM (FRDA lymphocytes) of 41 ± 7.2%, an inhibition at 10 µM (FRDA lymphocytes) of 51 ± 5% and a viability at 5 µM ([1]; 5 μM) of 74%. It also gave an IC50 [2] of 1.9 ± 0.1 µM and an Emax [2] of 98 ± 2.8%.
Molecule `COC1=C2CCCCCCCCCC=CCCCCNC(=CC1=O)C2=O` [Compound 39] has a melting point of 82 to 84 °C.
`C=CCCCCCCCCCC1=C(OC)C(=O)C=C(NCCCCC=C)C1=O` [Compound 38, 5-(hex-5-enylamino)-2-methoxy-3-(undec-10-enyl)cyclohexa-2,5-diene-1,4-dione] gave a melting point of 45 to 46 °C.
With `CCCCCCCCCCCCCC1=C(OC)C(=O)C=C(NCCCC(=O)OCc2ccccc2)C1=O` [Compound 12, benzyl 4-(4-methoxy-3,6-dioxo-5-tridecylcyclohexa-1,4-dienylamino)butanoate] the viability at 5 µM ([1]; 5 μM) was 71 ± 6.4%, the IC50 [2] was 34 ± 2.5 µM and the Emax [2] was at least 53%. For the same molecule, the “NADH oxidase activity (Complex I, III, IV) %” value ([3]; 1 μM) was 67 ± 6.0% and the “NADH oxidase activity (Complex I, III, IV) %” value ([3]; 5 μM) was 48 ± 3.0%.
`CCCCCCCCCCCCCC1=C(OC)C(=O)C=C(N(C)CCCC(=O)OC(C)(C)C)C1=O` [Compound 30, tert-butyl 4-((4-methoxy-3,6-dioxo-5-tridecylcyclohexa-1,4-dienyl)(methyl)amino)-butanoate] showed an inhibition at 5 µM (FRDA lymphocytes) of 97%, an inhibition at 10 µM (FRDA lymphocytes) of 100% and a viability at 1 µM [1] of 64 ± 15%. The viability at 2.5 µM [1] was 82 ± 5%.
With `CCCCCCCCCCCCCC1=C(O)C(=O)C=C(NCCCC(=O)O)C1=O` [Compound 8, 4-(4-hydroxy-3,6-dioxo-5-tridecylcyclohexa-1,4-dienylamino)butanoic Acid] the inhibition at 5 µM (FRDA lymphocytes) was 8 ± 6.6%, the inhibition at 10 µM (FRDA lymphocytes) was 24% and the “Cytoprotection (in words)” value ([1]; 5 μM, compared with 6 and 9) was “least protection”. For the same molecule, the viability at 5 µM ([1]; 5 μM) was 36 ± 7.3%, the IC50 [2] was 2 ± 0.1 µM and the Emax [2] was 84 ± 1.3%. The “NADH oxidase activity (Complex I, III, IV) %” value ([3]; 1 μM) was 77 ± 4.0% and the “NADH oxidase activity (Complex I, III, IV) %” value ([3]; 5 μM) was 62 ± 3.0%.
In the case of `CCCCCCCCCCCCCC1=C(OC)C(=O)C=C(N(C)CCCC(=O)OCCCCCC)C1=O` [Compound 24, Hexyl 4-((4-methoxy-3,6-dioxo-5-tridecylcyclohexa-1,4-dienyl)(methyl)amino)butanoate], the IC50 [2] is reported as 1.9 ± 0.1 µM, the Emax [2] is reported as 90 ± 0.7% and the “NADH oxidase activity (Complex I, III, IV) %” value ([3]; 1 μM) is reported as 81 ± 1.5%. For the same molecule, the “NADH oxidase activity (Complex I, III, IV) %” value ([3]; 5 μM) was 33 ± 0.9% and the “NADH oxidase activity (Complex I, III, IV) %” value ([3]; 10 μM) was 17 ± 0.4%.
Work on `CCCCCCCCCCCCCC1=C(O)C(=O)C=C(NCCCC(=O)OCCCC)C1=O` [Compound 14, Butyl 4-(4-hydroxy-3,6-dioxo-5-tridecylcyclohexa-1,4-dienylamino)butanoate] yielded a viability at 5 µM ([1]; 5 μM) of 58 ± 9%, an IC50 [2] of 11 ± 0.6 µM and an Emax [2] of 58 ± 4%.
Work on `CCCCCCCCCCCCCC1=C(O)C(=O)C=C(NCCCC(=O)OCc2ccccc2)C1=O` [Compound 11, Benzyl 4-(4-hydroxy-3,6-dioxo-5-tridecylcyclohexa-1,4-dienylamino)butanoate] yielded a viability at 5 µM ([1]; 5 μM) of 48 ± 5.8%, an IC50 [2] of 1.7 ± 0.1 µM and an Emax [2] of 70 ± 0.31%.
For `CCCCCCCCCCCCCC1=C(O)C(=O)C=C(N(C)CCCC(=O)OCCCCCC)C1=O` [Compound 23, hexyl 4-((4-hydroxy-3,6-dioxo-5-tridecylcyclohexa-1,4-dienyl)(methyl)amino)-butanoate], the IC50 [2] was 3.4 ± 0.1 µM, the Emax [2] was 78 ± 0.8% and the “NADH oxidase activity (Complex I, III, IV) %” value ([3]; 1 μM) was 82 ± 2.4%. For the same molecule, the “NADH oxidase activity (Complex I, III, IV) %” value ([3]; 5 μM) was 36 ± 1.0% and the “NADH oxidase activity (Complex I, III, IV) %” value ([3]; 10 μM) was 18 ± 0.5%.
For `CCCCCCCCCCCCCC1=C(O)C(=O)C=C(N(C)C)C1=O` [Compound 25, 5-(dimethylamino)-2-hydroxy-3-tridecylcyclohexa-2,5-diene-1,4-dione], the viability at 0.1 µM [1] was 21 ± 3%, the viability at 0.5 µM [1] was 18 ± 4% and the viability at 2.5 µM [1] was 24 ± 3%. The IC50 [2] was 1.5 ± 0.1 µM, the Emax [2] was 90 ± 3.4% and the “NADH oxidase activity (Complex I, III, IV) %” value ([3]; 1 μM) was 18 ± 0.5%. For the same molecule, the “NADH oxidase activity (Complex I, III, IV) %” value ([3]; 5 μM) was 6.6 ± 0.1% and the “NADH oxidase activity (Complex I, III, IV) %” value ([3]; 10 μM) was 5.0 ± 0.1%.
